molecular target: T1, hGLP-1 receptor (Homo sapiens, UniProt P43220); assay: Agonist activity against GLP-1 receptor (CRE-luciferase reporter, ONE-Glo Luciferase Assay System); type: cell-based; details: CHO-K1/CRE-luc/hGLP-1 receptor cells; 5 h incubation with compound; chemiluminescence readout
T1 construct: expressed in transfected cells; host or cells: CHO-K1 (stably transfected with hGLP-1 receptor plasmid and CRE-luc plasmid)
Description: This experiment was intended to test the agonist activity of compound molecules against hGLP-1 receptor and evaluate the in vitro activity of the molecules according to EC50. In this experiment, ONE-Glo™ Luciferase Assay System (ONE-Glo™ Luciferase Assay System, Promega, E6110) was used. Under the action of the compound molecules, GLP-1R downstream signaling pathways were activated to cause elevated cAMP level. The binding of cAMP to CRE could initiate the transcriptional expression of a CRE downstream luciferase gene. The luciferase could emit fluorescence when reacting with a substrate thereof. The fluorescence signal, which reflected the activity of the compound for agonizing GLP-1 receptor, was measured by means ONE-Glo™ reagent.
A stably transfected CHO-K1/CRE-luc/hGLP-1 receptor cell strain (hGLP-1 receptor plasmid constructed in-house and CRE-luc plasmid Promega E8471) was constructed. CHO-K1/CRE-luc/hGLP-1 receptor cells were digested, centrifuged, and then resuspended. The single cell suspension was uniformly mixed and adjusted to a viable cell density of 2.78 × 10^5 cells/ml with a cell culture medium (DME/F-12 + 10% FBS). The resulting solution was added to a 96-well cell culture plate at 90 µL/well (Corning, #3903). The culture plate was incubated in an incubator for 16 h (37°C, 5% CO2).
The compound was dissolved in DMSO to prepare a stock solution with an initial concentration of 20 mM. The starting concentration of the small molecule compound was 0.02 mM. The compound was subjected to 3-fold dilution for 10 points, wherein the 11th point was DMSO. Another 96-well plate was taken, to which was added 95 µL/well of a cell culture medium (DME/F-12 + 10% FBS), followed by 5 µL/well of test samples with different concentrations. The mixtures were uniformly mixed. Next, 10 µL/well of test samples with different concentrations were added to the cell culture plate, with two duplicate wells for each sample. The culture plate was incubated in an incubator for 5 h (37°C, 5% CO2). The 96-well cell culture plate was taken out. 100 µL/well of ONE-Glo™ reagent was added, followed by incubation at room temperature for 10 minutes. Chemiluminescence was measured in and by a microplate reader (PHERAstar FS, BMG labtech).
Data were processed and analyzed using Microsoft Excel and Graphpad Prism 10. EC50 values of the compounds were obtained. Table 1. Agonist activity of the compounds of the present invention against hGLP-1 receptor

T1 sequence (P43220 24-463): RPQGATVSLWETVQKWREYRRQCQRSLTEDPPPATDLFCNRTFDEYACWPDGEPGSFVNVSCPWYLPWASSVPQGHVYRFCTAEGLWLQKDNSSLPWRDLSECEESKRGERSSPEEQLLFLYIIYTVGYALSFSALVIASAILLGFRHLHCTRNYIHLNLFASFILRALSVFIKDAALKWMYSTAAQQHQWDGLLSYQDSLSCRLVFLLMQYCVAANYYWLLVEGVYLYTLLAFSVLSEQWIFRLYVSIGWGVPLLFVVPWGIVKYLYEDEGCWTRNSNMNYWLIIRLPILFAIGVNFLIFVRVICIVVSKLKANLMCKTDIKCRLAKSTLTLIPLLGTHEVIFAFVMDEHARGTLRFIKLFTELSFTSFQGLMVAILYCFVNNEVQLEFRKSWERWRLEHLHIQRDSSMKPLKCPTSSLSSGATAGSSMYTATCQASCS

| SMILES | EC50 | Emax |
| --- | --- | --- |
| Cc1cc(-n2nc3c(c2-c2cccn(-c4ccc5c(cnn5C)c4)c2=O)[C@H](C)N(C(=O)c2cc4cc([C@H]5CCOC(C)(C)C5)ccc4n2[C@@]2(c4noc(=O)[nH]4)C[C@@H]2C)CC3)cc(C)c1F [Compound 3, 3-((1S,2S)-1-(5-((S)-2,2-dimethyltetrahydro-2H-pyran-4-yl)-2-((S)-2-(4-fluoro-3,5-dimethylphenyl)-4-methyl-3-(1-(1-methyl-1H-indazol-5-yl)-2-oxo-1,2-dihydropyridin-3-yl)-4,5,6,7-tetrahydro-2H-pyrazolo[4,3-c]pyridine-5-carbonyl)-1H-indol-1-yl)-2-methylcyclopropyl)-1,2,4-oxadiazol-5(4H)-one] | 90 pM | 19.88 fold |
| Cc1cc(-n2nc3c(c2-n2ccn(-c4ccc5c(cnn5C)c4F)c2=O)[C@H](C)N(C(=O)c2cc4cc5c(cc4n2[C@@]2(c4noc(=O)[nH]4)C[C@@H]2C)OCC2COCCC52)CC3)cc(C)c1F (stereo partly drawn) [Compound 4, 3-((1S,2S)-1-(9-((S)-3-(3-(4-fluoro-1-methyl-1H-indazol-5-yl)-2-oxo-2,3-dihydro-1H-imidazol-1-yl)-2-(4-fluoro-3,5-dimethylphenyl)-4-methyl-4,5,6,7-tetrahydro-2H-pyrazolo[4,3-c]pyridine-5-carbonyl)-1,4a,5,11b-tetrahydro-4H-pyrano[4',3':4,5]pyrano[3,2-f]indol-8(2H)-yl)-2-methylcyclopropyl)-1,2,4-oxadiazol-5(4H)-one] | 390 pM | 16.51 fold |
| Cc1cc(-n2nc3c(c2-n2ccn(-c4ccc5c(cnn5C)c4F)c2=O)[C@H](C)N(C(=O)c2cc4cc5c(cc4n2[C@@]2(c4noc(=O)[nH]4)C[C@@H]2C)OCC52CCOCC2)CC3)cc(C)c1F [Compound 7] | 30 pM | 14.46 fold |
| Cc1cc(-n2nc3c(c2N2C[C@@H]4COc5cc6c(cnn6C6CC6)c(F)c5N4C2=O)[C@H](C)N(C(=O)c2cc4cc([C@H]5CCOC(C)(C)C5)ccc4n2[C@@]2(c4noc(=O)[nH]4)C[C@@H]2C)CC3)cc(C)c1F [Compound 13, (R)-7-cyclopropyl-2-((S)-5-(5-((S)-2,2-dimethyltetrahydro-2H-pyran-4-yl)-1-((1S,2S)-2-methyl-1-(5-oxo-4,5-dihydro-1,2,4-oxadiazol-3-yl)cyclopropyl)-1H-indole-2-carbonyl)-2-(4-fluoro-3,5-dimethylphenyl)-4-methyl-4,5,6,7-tetrahydro-2H-pyrazolo[4,3-c]pyridin-3-yl)-10-fluoro-2,3,3a,4-tetrahydro-1H,7H-imidazo[1',5':4,5][1,4]oxazino[3,2-f]indazol-1-one] | 10 pM | 21.50 fold |
| Cc1cc(-n2nc3c(c2N2C[C@@H]4COc5c(ccc6c5cnn6C)N4C2=O)[C@H](C)N(C(=O)c2cc4cc([C@H]5CCOC(C)(C)C5)ccc4n2[C@@]2(c4noc(=O)[nH]4)C[C@@H]2C)CC3)cc(C)c1F [Compound 23, (R)-7-((S)-5-(5-((S)-2,2-dimethyltetrahydro-2H-pyran-4-yl)-1-((1S,2S)-2-methyl-1-(5-oxo-4,5-dihydro-1,2,4-oxadiazol-3-yl)cyclopropyl)-1H-indole-2-carbonyl)-2-(4-fluoro-3,5-dimethylphenyl)-4-methyl-4,5,6,7-tetrahydro-2H-pyrazolo[4,3-c]pyridin-3-yl)-1-methyl-5,5a,6,7-tetrahydro-1H,8H-imidazo[1',5':4,5][1,4]oxazino[2,3-e]indazol-8-one] | 20 pM | 22.76 fold |
| Cc1cc(-n2nc3c(c2N2C[C@@H]4COc5c(ccc6c5cnn6C5CC5)N4C2=O)[C@H](C)N(C(=O)c2cc4cc([C@H]5CCOC(C)(C)C5)ccc4n2[C@@]2(c4noc(=O)[nH]4)C[C@@H]2C)CC3)cc(C)c1F [Compound 24, (R)-1-cyclopropyl-7-((S)-5-(5-((S)-2,2-dimethyltetrahydro-2H-pyran-4-yl)-1-((1S,2S)-2-methyl-1-(5-oxo-4,5-dihydro-1,2,4-oxadiazol-3-yl)cyclopropyl)-1H-indole-2-carbonyl)-2-(4-fluoro-3,5-dimethylphenyl)-4-methyl-4,5,6,7-tetrahydro-2H-pyrazolo[4,3-c]pyridin-3-yl)-5,5a,6,7-tetrahydro-1H,8H-imidazo[1',5':4,5][1,4]oxazino[2,3-e]indazol-8-one] | 30 pM | 18.51 fold |
| Cc1cc(-n2nc3c(c2N2C[C@@H]4COc5cc6c(cnn6C(F)F)c(F)c5N4C2=O)[C@H](C)N(C(=O)c2cc4cc([C@H]5CCOC(C)(C)C5)ccc4n2[C@@]2(c4noc(=O)[nH]4)C[C@@H]2C)CC3)cc(C)c1F [Compound 25, (R)-7-(difluoromethyl)-2-((S)-5-(5-((S)-2,2-dimethyltetrahydro-2H-pyran-4-yl)-1-((1S,2S)-2-methyl-1-(5-oxo-4,5-dihydro-1,2,4-oxadiazol-3-yl)cyclopropyl)-1H-indole-2-carbonyl)-2-(4-fluoro-3,5-dimethylphenyl)-4-methyl-4,5,6,7-tetrahydro-2H-pyrazolo[4,3-c]pyridin-3-yl)-10-fluoro-2,3,3a,4-tetrahydro-1H,7H-imidazo[1',5':4,5][1,4]oxazino[3,2-f]indazol-1-one] | 20 pM | 18.46 fold |
| Cc1cc(-n2nc3c(c2N2C[C@@H]4COc5cc6c(cnn6CC(F)(F)F)c(F)c5N4C2=O)[C@H](C)N(C(=O)c2cc4cc([C@H]5CCOC(C)(C)C5)ccc4n2[C@@]2(c4noc(=O)[nH]4)C[C@@H]2C)CC3)cc(C)c1F [Compound 29, (R)-2-((S)-5-(5-((S)-2,2-dimethyltetrahydro-2H-pyran-4-yl)-1-((1S,2S)-2-methyl-1-(5-oxo-4,5-dihydro-1,2,4-oxadiazol-3-yl)cyclopropyl)-1H-indole-2-carbonyl)-2-(4-fluoro-3,5-dimethylphenyl)-4-methyl-4,5,6,7-tetrahydro-2H-pyrazolo[4,3-c]pyridin-3-yl)-10-fluoro-7-(2,2,2-trifluoroethyl)-2,3,3a,4-tetrahydro-1H,7H-imidazo[1',5':4,5][1,4]oxazino[3,2-f]indazol-1-one] | 20 pM | 19.58 fold |
| COCCn1ncc2c(F)c3c(cc21)OC[C@H]1CN(c2c4c(nn2-c2cc(C)c(F)c(C)c2)CCN(C(=O)c2cc5cc([C@H]6CCOC(C)(C)C6)ccc5n2[C@@]2(c5noc(=O)[nH]5)C[C@@H]2C)[C@H]4C)C(=O)N31 [Compound 30, (R)-2-((S)-5-(5-((S)-2,2-dimethyltetrahydro-2H-pyran-4-yl)-1-((1S,2S)-2-methyl-1-(5-oxo-4,5-dihydro-1,2,4-oxadiazol-3-yl)cyclopropyl)-1H-indole-2-carbonyl)-2-(4-fluoro-3,5-dimethylphenyl)-4-methyl-4,5,6,7-tetrahydro-2H-pyrazolo[4,3-c]pyridin-3-yl)-10-fluoro-7-(2-methoxyethyl)-2,3,3a,4-tetrahydro-1H,7H-imidazo[1',5':4,5][1,4]oxazino[3,2-f]indazol-1-one] | 20 pM | 20.59 fold |
| Cc1cc(-n2nc3c(c2N2C[C@@H]4COc5c(c(F)cc6c5cnn6C5CC5)N4C2=O)[C@H](C)N(C(=O)c2cc4cc([C@H]5CCOC(C)(C)C5)ccc4n2[C@@]2(c4noc(=O)[nH]4)C[C@@H]2C)CC3)cc(C)c1F [Compound 37, (R)-1-cyclopropyl-7-((S)-5-(5-((S)-2,2-dimethyltetrahydro-2H-pyran-4-yl)-1-((1S,2S)-2-methyl-1-(5-oxo-4,5-dihydro-1,2,4-oxadiazol-3-yl)cyclopropyl)-1H-indole-2-carbonyl)-2-(4-fluoro-3,5-dimethylphenyl)-4-methyl-4,5,6,7-tetrahydro-2H-pyrazolo[4,3-c]pyridin-3-yl)-10-fluoro-5,5a,6,7-tetrahydro-1H,8H-imidazo[1',5':4,5][1,4]oxazino[2,3-e]indazol-8-one] | 30 pM | 18.06 fold |
| Cc1cc(-n2nc3c(c2N2C[C@@H]4COc5cc6c(cnn6C(C)C)c(F)c5N4C2=O)[C@H](C)N(C(=O)c2cc4cc([C@H]5CCOC(C)(C)C5)ccc4n2[C@@]2(c4noc(=O)[nH]4)C[C@@H]2C)CC3)cc(C)c1F [Compound 40, (R)-2-((S)-5-(5-((S)-2,2-dimethyltetrahydro-2H-pyran-4-yl)-1-((1S,2S)-2-methyl-1-(5-oxo-4,5-dihydro-1,2,4-oxadiazol-3-yl)cyclopropyl)-1H-indole-2-carbonyl)-2-(4-fluoro-3,5-dimethylphenyl)-4-methyl-4,5,6,7-tetrahydro-2H-pyrazolo[4,3-c]pyridin-3-yl)-10-fluoro-7-isopropyl-2,3,3a,4-tetrahydro-1H,7H-imidazo[1',5':4,5][1,4]oxazino[3,2-f]indazol-1-one] | 30 pM | 19.36 fold |

— patent EP4813984A1 (Jiangsu Hengrui Pharmaceuticals Co., Ltd., priority 2023, dated 2025)
